Values of other authors in patent US7955629B2, “Method of feeding milk replacer with carnitine” (Land O'Lakes Purina Feed LLC, priority 2005, dated 2011).

Tests used:
[1] = ten month old steers; 0.6 and 1.2 grams per day; forty two day trial
[2] = not given; remark: listed apart in the source
[3] = not given; remark: listed apart in the source

Compound: C[N+](C)(C)CC(O)CC(=O)[O-] (centres unmarked) [carnitine]
- average daily gain compared to the control (heifers fed 0.6 and 1.2 grams per day, midpoint of the experiment): statistically significantly greater
- average daily weight gain, fed or not fed carnitine (heifers, end of the forty two day experiment): no statistically significant difference
- effectiveness of carnitine (backfat depths) [1]: inconclusive
- Acetate to proprionate ratios ([2]; mature ruminally cannulated steers): not effected
- nitrogen uptake from the rumen ([2]; supplementation at high levels in a high roughage diet): little effect
- milk fat content and milk fat yield ([3]; dosed directly into the abomasum): decreased
- digestible and metabolized energy from the diet ([3]; dosed directly into the rumen or abomasum): tended to increase
- Milk production ([3]; dosed into the rumen or abomasum): not affected
